The structures appear in SMILES notation. Values joined by “and” are separate entries in the source; they are usually repeats but may differ in a detail not shown here. Equal values may be shown once. “Also recorded” adds a separate entry of the source.

This is an account of results in publication PMC5341572, “Self-Assembly and Anti-Amyloid Cytotoxicity Activity of Amyloid beta Peptide Derivatives” (Scientific Reports, 2017).

Series [1] relates to SH-SY5Y neuroblastoma cells. Nature of the series: MTS neurotoxicity assay with SH-SY5Y cells. Format: cell-based. To be noted: 24 h. How it is done: SH-SY5Y neuroblastoma cells were maintained in a 1:1 ratio of Ham’s F12 and Dulbecco’s Modified Eagle Medium with 10% foetal calf serum and penicillin/streptomycin at 37 °C and 5% CO2. At 85–95% confluence the cells were detached from their growth substrate using trypsin and the growth medium was removed following centrifugation of the cells at 500xg for five minutes. The cells were re-suspended in a serum-free medium (Optimem with penicillin/streptomycin) and distributed at 20,000 cells per well in a 96-well plate then incubated at 37 °C, 5% CO2 for a further 24 hours. […] Cells were incubated for a further 24 hours as above and then assayed for cell survival using an MTS based assay (CellTiter 96 AQueous One Solution Cell Proliferation Assay from Promega).

Series [2] addresses T1, Aβ(1–42) (Homo sapiens, UniProt P05067).
T1 construct: purchased American Peptide Inc. (Sunnyvale, USA)
Description: CD spectroscopy of Aβ(1–42) secondary structure on addition of peptide. The conditions noted are these: Aβ(1–42):peptide molar ratio 1:1.2 for peptide 1 and 1:1.6 for peptide 2; Tris buffer pH 7.4. As to the method: HFIP was then evaporated under a slow stream of N2.
CD spectra were recorded using a Chirascan spectropolarimeter (Applied Photophysics, UK). Peptide solutions were placed in a cover slip cuvette (1 × 10^−2 or 0.1 mm thick), spectra presented being with absorbance A < 2 at any measured point with a 0.5 nm step, 1 nm bandwidth, and 1 s collection time per step. The CD signal from the background was subtracted from the CD data of the sample solutions. […] CD experiments were performed using a Quartz cuvette with 1mm path length.

Series [3] has as its system primary rat cortical neurons. Description: MTS neurotoxicity assay with primary neurons. Format: cell-based. To be noted: final Aβ 20 μM, 20 h. (Tetrazolium dyes change colour on reduction, which living cells bring about.)
Description: Neuronal cultures were obtained from E16 rat embryos as described[63] with modifications. Briefly, brain cortical tissue was dissected free of meninges and suspended in 0.5 ml of Ca^2+ and Mg^2+ –free Hank’s balanced solution (Gibco). Tissue was then incubated with 4 ml of 0.25% trypsin in a 37 °C water bath for 20 min with agitation. After digestion, tissue was centrifuged at 1000 rpm for 2 min, suspended in DMEM (Gibco) containing 10% fetal calf serum (FCS) (Internegocios) and incubated at 37 °C for 10 min. The pellet was washed with DMEM 10% FCS and allowed to rest for 10 min. Medium was replaced with 1 ml Neurobasal medium (Gibco) and triturated with a 10 ml plastic pipette. […]
Aliquots were dried under a gentle stream of N2 and re-suspended in 20 mM Tris-HCl, pH 7.4, containing 50 mM NaCl (working buffer). […] Cell viability was measured using a (3-(4, 5-dimethylthiazol-2-yl)-5-(3-carboxymethoxyphenyl)-2-(4-sulfophenyl)-2H-tetrazolium) (MTS) reduction assay. Twenty μl of MTS solution containing phenazine ethyl sulfate were added to wells, incubated for 1 h and absorbance was measured at 490 nm. Viability was expressed as the O.D. relative to neurons treated with working buffer alone. […] Data of three MTS assays were analyzed by one-way ANOVA and Bonferroni post hoc test with Graph Pad Prism v. […]
Series [4] is described as follows: ANS fluorescence assay for critical aggregation concentration (cac). It is filed as physicochemical. To be noted: discontinuity in concentration-dependent ANS fluorescence; 74 μM ANS solution, λex 356 nm, spectra 400-670 nm. How it is done:
8-anilo-1-naphthalenesulfonic acid (ANS) and thioflavin T (ThT) fluorescence were used to locate the critical aggregation concentration (cac). Spectra were recorded with a Varian Cary Eclipse fluorescence spectrometer with samples in 4 mm inner width quartz cuvettes. The ANS fluorophore is a probe sensitive to the hydrophobicity of its surrounding environment, making it suitable to determine the cac. ANS assays were performed measuring spectra from 400 to 670 nm (λex = 356 nm), using a 74 μM ANS solution to solubilize the peptide. ThT fluorescence depends on the formation of amyloid-like structures[36][37] (β-sheet fibrils) and is used for amyloid fibril-forming peptides. For the ThT assay, the spectra were recorded from 460 to 600 nm using an excitation wavelength of λex = 440 nm, and the peptide was dissolved in a 5.0 × 10^−3 wt % ThT solution.

Series [5] can be described thus: ESI mass spectrometry of peptide oligomerisation with and without HFIP. Format: physicochemical. As to the method:
Samples were diluted to 0.029 wt % peptide in both H2O and HFIP:H2O (1:9; v/v). ESI mass spectra were acquired in positive ion mode on a Synapt G2-Si instrument (Waters Corporation, Wilmslow, UK). The employed Z-spray ESI source (Waters Corporation, Wilmslow, UK) was operated at 1.8 kV and the ESI sample solutions were infused at 10 μL/min using a KD Scientific syringe pump (KD Scientific Inc., Holliston, USA). The desolvation and source temperature were 150 °C and 80 °C, respectively, and the cone voltage was set to 40 V. ESI mass spectra were acquired in triplicate in sensitivity mode with the exception of higher resolution mass spectra, which were acquired once in resolution mode with ion mobility separation enabled. For the latter, wave velocity and wave height were set to 650 m/s and 40 V, respectively, and the helium and nitrogen flow rates were 180 and 90 mL/min, respectively. The acquired data was converted to mzML format using the msconvert tool from the ProteoWizard software package. In-house developed software based on the pymzML software library[62] was used to extract the integrated isotopomer signal intensities of interest from the converted data files. The integrated ion signal intensities of the monomer (SM) and all oligomers (SO) were summed for each acquired spectrum to determine the total ion signal intensity of the analysed peptide species (ST):
The relative extent of oligomerisation (EO) was determined by dividing the integrated ion signal intensities of the oligomers (SO) by the total ion signal intensity of the analysed peptide (ST): […]

[6] abbreviates: peptide to Aβ(1–42) ratio 1:2 (2.5 μM peptide, 5 μM Aβ).
Where [7] appears, read: peptide to Aβ(1–42) ratio 1:5 (1 μM peptide, 5 μM Aβ).
Where [8] appears, read: peptide to Aβ(1–42) ratio 1:20 (0.25 μM peptide, 5 μM Aβ).

T1 sequence (P05067 672-713): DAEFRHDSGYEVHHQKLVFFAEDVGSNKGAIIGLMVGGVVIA

In the case of `CC(C)C[C@H](NC(=O)[C@@H](N)CCCCNC(=O)OC(C)(C)C)C(=O)N[C@H](C(=O)N[C@@H](Cc1ccccc1)C(=O)N[C@@H](Cc1ccccc1)C(N)=O)C(C)C` [peptide 2, NH2-K(Boc)LVFF-CONH2], the “effect of peptide alone on cells, in words” value in series [1] (2.5 μM peptide in the absence of Aβ(1–42)) is “negative effect”. Moreover, the “effect on Aβ(1–42) cytotoxicity, in words” value in series [1] (setting [6]) is listed as “block the cytotoxic effect”; in series [1] (peptide to Aβ(1–42) ratio 1:2 (2.5 μM peptide, 5 μM Aβ), listed as Peptide 2) it was “rescues the cells”; in series [1] (setting [7]), “positive effect”; in series [1] (setting [8]), “positive effect”.

As to `CC(C)C[C@H](NC(=O)[C@@H](N)CCCCN)C(=O)N[C@H](C(=O)N[C@@H](Cc1ccccc1)C(=O)N[C@@H](Cc1ccccc1)C(N)=O)C(C)C` [peptide 1, NH2-KLVFF-CONH2], the “β-sheet minimum (216 nm) in CD spectrum of Aβ(1–42) upon addition of peptide” value in series [2] was “significantly reduced”. Moreover, the “effect on viability of Aβ(1–42)-treated neurons” value in series [3] (Aβ:peptide 1:1 (equimolarity), co-incubated 72 h with 100 μM Aβ(1–42)) is recorded as “no effect”. Also, the “improvement of viability of Aβ(1–42)-treated neurons” value in series [3] (Aβ:peptide molar ratio 1:1.5, co-incubated 72 h, p < 0.05) was ~ 70%. In addition, the “critical aggregation concentration (cac), ANS assay (hydrophobic collapse)” value in series [4] was 1.00 ± 5 × 10^−2 wt% and ~ 1 wt%. The “effect on Aβ(1–42) cytotoxicity, in words” value in series [1] (setting [6]) is “block the cytotoxic effect”; in series [1] (setting [7]), “not very effective; also recorded: no protective effect”; in series [1] (setting [8]), “not very effective; also recorded: no protective effect”. Also, the “aggregation state n of self-assemblies (oligomers) seen by ESI MS” value in series [5] (0.029 wt% peptide) is at most 7. Further, the “relative extent of oligomerisation (Eo)H2O” value in series [5] (0.029 wt% peptide in H2O, positive-ion ESI MS, oligomer signal / total peptide signal, spectra in triplicate) is on record as 0.040 ± 0.002. The “relative extent of oligomerisation (Eo)HFIP” value in series [5] (0.029 wt% peptide in HFIP:H2O (1:9 v/v), positive-ion ESI MS, oligomer signal / total peptide signal, spectra in triplicate) is 0.046 ± 0.002.
